In data set [1] the test system is TNF-α-induced adhesion of U937 monocytic cells to HT-29 cells. Kind of data set: TNF-α-induced colonic epithelial cell adhesion assay. As to conditions: Homo sapiens, Epithelial cell, 10 uM; U937 adhesion to HT-29 cells, TNF-α-induced. The format is cell-based, human. On the procedure:
Synthesized mollugin derivatives were subjected to the colonic epithelial cell adhesion assay, which mimics the initial stage of colon inflammation. The inhibition of TNF-α-induced or IL-6-induced adhesion of U937 monocytic cells to HT-29 cells in 10 μM solution of synthesized molecules was measured, and the results are summarized in Table 1 and Table 2. Mesalazine (2), a commercially available medication for the treatment of IBD, and mollugin were chosen as assay positive controls.
HT-29 human colonic epithelial cells and U937 human pre-monocytic cells were grown in RPMI 1640 medium supplemented with 10% FBS, 100 IU/mL penicillin, and 100 µg/mL streptomycin in a humidified incubator under 5% CO2/95% air.
U937 monocytic cell adhesion to colonic epithelial cells was evaluated using human U937 pre-monocytic cells, which were prelabeled with 2′,7′-bis(2-carboxyethyl)-5(6)-carboxyfluorescein acetoxymethyl ester (BCECF/AM, 10 μg/mL) for 1 h at 37 °C. HT-29 cells cultured in 24-well plates were pretreated with test compound, 5-ASA, or tofacitinib for 1 h prior to incubation with TNF-α (10 ng/mL) and IL-6 (5 ng/mL) for an additional 3 h. Cells were then co-incubated with BCECF/AM-prelabeled U937 cells (1 × 10^6 cells/well) for 30 min at 37 °C. Non-adhering U937 cells were removed, and the HT-29 cells and adherent U937 cells were washed twice with PBS. Images were captured and processed with a Nikon ECLIPSE TE2000-U microscope and NIS-Elements F software (Nikon, Tokyo, Japan). For quantitative analysis, other sets of cells were lysed in 0.1% Triton X-100 in Tris (0.1 M), and the fluorescence was measured using a fluorescence-detecting microplate reader (Promega , Madison, WI, USA) at […]. Experiments were performed in triplicate and repeated at least three times independently.

A further data set concerns the target T1, CYP2D6 (Homo sapiens, UniProt P10635).
T1 construct: from tissue; host or cells: human liver microsomes
Kind of data set: CYP inhibition assay, CYP2D6. Particulars: for CYP Inhibition (% of Control) 2D6: 10 μM, CYP activity in presence of inhibitor as % of control, human liver microsomes. The format is in vitro ADME. The protocol:
(§1) All incubations were performed in duplicate, and the mean values were used for analysis. The assays of phenacetin O-deethylase, tolbutamide 4-hydroxylase, S-mephenytoin 4-hydroxylase, dextromethorphan O-demethylase and midazolam 1′-hydroxylase activities were determined as probe activities for CYP1A2, CYP2C9, CYP2C19, CYP2D6 and CYP3A, respectively, using cocktail incubation and tandem mass spectrometry. Briefly, incubation reaction was performed with 0.25 mg/mL human liver microsomes in a final incubation volume of 100 μL. The incubation medium contained 100 mM phosphate buffer (pH 7.4) with probe substrates. The incubation mixture containing various inhibitors (10 μM) was pre-incubated for 5 min. After pre-incubation, an NADPH regenerating system was added. After incubation at 37 °C for 15 min, the reaction was stopped by placing the incubation tubes on ice and adding 40 μL of ice-cold acetonitrile. The incubation mixtures were then centrifuged at 10,000× g for 5 min at 4 °C. Aliquots of the supernatant were injected onto an LC-MS/MS system. The CYP-mediated activities in the presence of inhibitors were expressed as percentages of the corresponding control values.
(In general: Liver microsomes are vesicles of endoplasmic reticulum, rich in cytochrome P450 enzymes.)

A short description of data set [2]: Metabolic stability, rat liver microsomes. The format is in vitro ADME. Particulars: 30 min, 1 μM. The protocol:
(§2) Pooled human liver microsomes (150 donor) and dog, rat, mouse liver microsomes were obtained from BD Gentest Co. (Woburn, MA, USA). NADPH regeneration system was obtained from Promega. S-Mephenytoin, 4-hydroxymephenytoin, and 1’-hydroxymidazolam were purchased from Ultrafine Chemical Co. (Manchester, UK). All other chemicals and solvents were of the highest grade available. The metabolic stability assay was performed by incubation of human or selected animal liver microsomes (most often dog, rat and mouse), at 37 °C with a test compound at a final concentration of 1 μM, in the presence of 0.5 mg/mL microsomal protein and NADPH regeneration system, in a total volume of 100 μL of 100 mM phosphate buffer, pH 7.4. The incubation was started by the addition of NADPH regeneration system and terminated with 40 μL of ice-cold acetonitrile at 0 and 30 min. Precipitated proteins were removed by centrifugation at 10,000× g for 5 min at 4 °C. Aliquots of the supernatant were injected onto an LC-MS/MS system. Incubations terminated prior to the addition of NADPH regeneration system (time point 0 min) were used as standards, defined as 100%. Percent of the parent compound remaining was calculated by comparing peak area.

Another data set addresses T2, CYP2C9 (Homo sapiens, UniProt P11712).
T2 construct: from tissue; host or cells: human liver microsomes
Kind of data set: CYP inhibition assay, CYP2C9. Type of data set: in vitro ADME. As to conditions: for CYP Inhibition (% of Control) 2C9: 10 μM, CYP activity in presence of inhibitor as % of control, human liver microsomes. The protocol:
as §1

The subject of the next data set is Serum Amyloid A (SAA). Kind of data set: Serum SAA level in DSS-induced colitis mouse model (ELISA). Type of data set: in vivo. Particulars: for serum SAA level (mSS assay): 4% DSS-induced mouse model, compound 10 μM, ELISA; for effect on serum SAA level: murine model of DSS-induced colitis. The protocol: The level of Serum Amyloid A (SAA) was measured using a mouse SAA ELISA kit according to the manufacturer’s instructions (E-90SAA, Immunology Consultants Laboratory, Inc., Portland, OR, USA). All samples were assayed in duplicate. The concentrations of SAA were determined by comparison to serial dilutions of purified SAA calibrator.
Figure 2 Analysis of mouse serum amyloid A (SAA) level. Effect of 6d on the level of SAA in the 4% dextran sulfate sodium (DSS)-induced mouse model. The level of SAA in serum was determined by ELISA. The control mice received water + vehicle (water), and the treated groups received 4% DSS + vehicle or DSS with mesalazine (20 mM), 6d (10 μM), or 15c (10 μM). TEXT PRINTED IN THE PICTURE: vehecle: mSS assay (ng/ml): 252.08 | vehecle: mSS assay (ng/ml): 732.93 (4% DSS) | 2: mSS assay (ng/ml): 788.86 (4% DSS) | 6d: mSS assay (ng/ml): 295.77 (4% DSS) | 15c: mSS assay (ng/ml): 300.95 (4% DSS)

A short description of data set [3]: Metabolic stability, human liver microsomes. The format is in vitro ADME. Particulars: 1 μM. On the procedure:
as §2

The nature of data set [4]: Metabolic stability, mouse liver microsomes. The format is in vitro ADME. Particulars: 30 min, 1 μM. The protocol:
as §2

Data set [5] in a line: Plasma stability, rat plasma. As to conditions: 2 h, 37 °C, 1 μM. The format is in vitro ADME. On the procedure: The plasma stability assay was performed by incubation of human or rat plasma with a test compound in a final concentration of 1 μM for 120 min at 37 °C. The incubation was terminated by addition of 40 μL of ice-cold acetonitrile and vortexing for 5 min. The precipitated proteins were removed by centrifugation at 14,000× g for 5 min at 4 °C. Aliquots of the supernatant were injected onto a Shimadzu Nexera XR LC system. Percentages of the parent compound remaining were calculated by comparing peak areas using the Xcalibur software (version 1.6.1, Waltham, MA, USA).

The inhibition is the share of the control response that was lost under treatment.

T1 sequence (P10635 whole entry): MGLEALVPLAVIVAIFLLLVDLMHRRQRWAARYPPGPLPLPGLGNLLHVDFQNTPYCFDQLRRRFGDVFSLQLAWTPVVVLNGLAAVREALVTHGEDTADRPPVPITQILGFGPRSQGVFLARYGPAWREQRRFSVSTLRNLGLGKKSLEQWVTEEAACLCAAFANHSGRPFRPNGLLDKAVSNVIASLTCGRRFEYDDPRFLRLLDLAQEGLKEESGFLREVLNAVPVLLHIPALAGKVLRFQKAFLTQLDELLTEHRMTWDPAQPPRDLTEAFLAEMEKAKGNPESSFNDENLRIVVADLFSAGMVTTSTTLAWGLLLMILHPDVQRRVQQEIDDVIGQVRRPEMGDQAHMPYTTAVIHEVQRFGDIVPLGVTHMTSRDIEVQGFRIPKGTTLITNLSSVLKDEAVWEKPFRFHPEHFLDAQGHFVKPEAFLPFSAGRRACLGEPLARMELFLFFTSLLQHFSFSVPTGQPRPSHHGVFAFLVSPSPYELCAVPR
T2 sequence (P11712 whole entry): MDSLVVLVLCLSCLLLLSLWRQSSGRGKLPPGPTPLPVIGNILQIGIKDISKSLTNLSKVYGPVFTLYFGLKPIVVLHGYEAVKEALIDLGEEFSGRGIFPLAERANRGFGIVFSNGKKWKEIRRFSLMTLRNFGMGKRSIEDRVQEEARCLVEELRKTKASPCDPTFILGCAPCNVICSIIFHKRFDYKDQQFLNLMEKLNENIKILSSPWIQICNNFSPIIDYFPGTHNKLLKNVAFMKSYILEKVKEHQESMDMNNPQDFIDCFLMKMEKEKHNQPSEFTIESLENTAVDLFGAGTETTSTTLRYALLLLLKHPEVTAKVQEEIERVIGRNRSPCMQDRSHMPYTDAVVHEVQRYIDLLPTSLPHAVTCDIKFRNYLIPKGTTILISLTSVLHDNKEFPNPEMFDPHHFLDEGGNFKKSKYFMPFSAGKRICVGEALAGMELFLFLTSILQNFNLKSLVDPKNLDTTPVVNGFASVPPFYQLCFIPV

The molecule `CC1(C)C=Cc2c(C(=O)OCCN3CCOCC3)c(O)c3cc(C(F)(F)F)ccc3c2O1` [15c, 2-Morpholinoethyl 6-hydroxy-2,2-dimethyl-8-(trifluoromethyl)-2H-benzo[h]chromene-5-carboxylate] gave an inhibition at 10 µM in data set [1] of 46 ± 7.6%. Further, the “CYP Inhibition (% of Control) 2D6” value at CYP2D6 is on record as 92 % of Control. Moreover, the inhibition at 15 min, 10 μM at CYP2D6 (human, liver microsomes, pH 7.4, probe dextromethorphan (O-demethylation), at 10 μM drug concentration, read-out: % inhibition of CYP 2D6) was under 50%. Further, in data set [2], the “Metabolic Stability (% Remain, 30 min) Rat” value is reported as 52 % Remain. At CYP2C9, the “CYP Inhibition (% of Control) 2C9” value is on record as 97 % of Control. Further, the inhibition at 15 min, 10 μM on CYP2C9 (human, liver microsomes, pH 7.4, probe tolbutamide (4-hydroxylation), at 10 μM drug concentration, read-out: % inhibition of CYP 2C9) is under 50%. In the data set with Serum Amyloid A (SAA), the “serum SAA level (mSS assay)” value turned out to be 300.95 ng/mL and the “effect on serum SAA level” value is reported as “reduces serum SAA level”. The “Metabolic Stability (% Remain, 30 min) Human” value in data set [3] was 84 % Remain. Further, in data set [4], the “Metabolic Stability (% Remain, 30 min) Mouse” value was found to be 45 % Remain. Moreover, the “Plasma Stability (% Remain, 2 h) Rat” value in data set [5] worked out at 51 % Remain.

Consider `CC1(C)C=Cc2c(C(=O)OCCN3CCOCC3)c(O)c3ccccc3c2O1` [6d, 2-Morpholinoethyl 6-hydroxy-2,2-dimethyl-2H-benzo[h]chromene-5-carboxylate], for which the inhibition at 10 µM in data set [1] is 46.3 ± 6.2%. At CYP2D6, the “CYP Inhibition (% of Control) 2D6” value is given as 75 % of Control. For the same molecule, the “Metabolic Stability (% Remain, 30 min) Rat” value in data set [2] worked out at 20 % Remain. Besides, on CYP2C9, the “CYP Inhibition (% of Control) 2C9” value is 99 % of Control. Moreover, in the data set with Serum Amyloid A (SAA), the “serum SAA level (mSS assay)” value was found to be 295.77 ng/mL and the “effect on serum SAA level” value is on record as “reduces serum SAA level”. Also, the “Metabolic Stability (% Remain, 30 min) Human” value in data set [3] amounted to 83 % Remain. Besides, in data set [4], the “Metabolic Stability (% Remain, 30 min) Mouse” value was 10 % Remain. The “Plasma Stability (% Remain, 2 h) Rat” value in data set [5] is reported as 97 % Remain.

The values are drawn from PMC6222789, “CF3-Substituted Mollugin 2-(4-Morpholinyl)-ethyl ester as a Potential Anti-inflammatory Agent with Improved Aqueous Solubility and Metabolic Stability” (Molecules : A Journal of Synthetic Chemistry and Natural …, 2018).
